ChEMBL document CHEMBL2380208, “Novel quinoline derivatives as inhibitors of bacterial DNA gyrase and topoisomerase IV” (Bioorg Med Chem Lett, 2013)
pIC50: −log10 of the molar value. Converted amounts (≈) assume the structure as drawn.

Assays:
DNA gyrase = DNA gyrase (Staphylococcus aureus, UniProt P0A0K8+P20831); assay: Inhibition of Staphylococcus aureus DNA gyrase; assay type: protein-complex assay
Staphylococcus aureus [1] = assay: Antibacterial activity against Staphylococcus aureus 1146; assay type: functional
Staphylococcus aureus [2] = assay: Antibacterial activity against fluoroquinolone-resistant Staphylococcus aureus 1095; assay type: functional
[3] = Inhibition of Staphylococcus aureus DNA topoisomerase 4
Staphylococcus aureus [4] = assay: Antibacterial activity against fluoroquinolone-resistant Staphylococcus aureus harboring DNA gyrase D83N mutant; assay type: functional
Staphylococcus aureus [5] = assay: Antibacterial activity against fluoroquinolone-resistant Staphylococcus aureus harboring DNA gyrase M121K mutant; assay type: functional

Row | SMILES | pIC50 (DNA gyrase) | MIC (Staphylococcus aureus [1]) | MIC (Staphylococcus aureus [2]) | pIC50 [3] | MIC (Staphylococcus aureus [4]) | MIC (Staphylococcus aureus [5])
1 | COc1ccc2nccc([C@@H](O)CC[C@@H]3CCN(C4CC(c5ccncn5)C4)C[C@@H]3C(=O)O)c2c1 (stereo partly drawn) | 4.72 | 64 µg/mL (≈ 134 µM) | > 64 µg/mL | 3.92 |  | 
2 | COc1ccc2nccc([C@@H](O)CC[C@@H]3CCN(C4CC(c5ccno5)C4)C[C@@H]3C(=O)O)c2c1 (stereo partly drawn) | 5.50 | 2 µg/mL (≈ 4.3 µM) | 8 µg/mL (≈ 17.2 µM) | 4.22 |  | 
3 | COc1ccc2nccc([C@@H](O)CC[C@@H]3CCN(C4CC(c5ccnc(C)n5)C4)C[C@@H]3C(=O)O)c2c1 (stereo partly drawn) | 4.30 | > 64 µg/mL | > 64 µg/mL | < 3.92 |  | 
4 | COc1ccc2nccc([C@@H](O)CC[C@@H]3CCN(C4CC(c5ccn(C)n5)C4)C[C@@H]3C(=O)O)c2c1 (stereo partly drawn) | 4.72 | > 64 µg/mL | > 64 µg/mL | < 3.92 |  | 
5 | COc1ccc2nccc([C@@H](O)CC[C@@H]3CCN(C4CC(c5ccn[nH]5)C4)C[C@@H]3C(=O)O)c2c1 (stereo partly drawn) | < 4.60 | > 64 µg/mL | > 64 µg/mL | < 3.92 |  | 
6 | COc1ccc2nccc([C@@H](O)CC[C@@H]3CCN(C4CC(c5ccc(-c6ccccc6)cc5)C4)C[C@@H]3C(=O)O)c2c1 (stereo partly drawn) | < 4.30 | > 64 µg/mL | > 64 µg/mL | 3.92 |  | 
7 | COc1ccc2nccc([C@@H](O)CC[C@@H]3CCN(C4CC(c5cccc(F)c5C)C4)C[C@@H]3C(=O)O)c2c1 (stereo partly drawn) | 4.60 |  | 0.5 µg/mL (≈ 0.987 µM) | < 3.92 | > 64 µg/mL | > 64 µg/mL
8 | COc1ccc(F)c(C2CC(N3CC[C@@H](CC[C@H](O)c4ccnc5ccc(OC)cc45)[C@@H](C(=O)O)C3)C2)c1 (stereo partly drawn) | 4.30 |  | 4 µg/mL (≈ 7.65 µM) | < 3.92 | > 64 µg/mL | > 64 µg/mL
9 | COc1ccc2nccc([C@@H](O)CC[C@@H]3CCN(C4CC(c5c(F)cccc5Cl)C4)C[C@@H]3C(=O)O)c2c1 (stereo partly drawn) | 5.33 |  |  | 4.22 | 64 µg/mL (≈ 121 µM) | 32 µg/mL (≈ 60.7 µM)
10 | COc1ccc2nccc([C@@H](O)CC[C@@H]3CCN(C4CC(c5cc(C(F)(F)F)ccc5F)C4)C[C@@H]3C(=O)O)c2c1 (stereo partly drawn) | 4.60 |  | 4 µg/mL (≈ 7.14 µM) | < 4.00 |  | 
11 | COc1ccc2nccc([C@@H](O)CC[C@@H]3CCN(C4CC(c5c(F)ccc(Cl)c5F)C4)C[C@@H]3C(=O)O)c2c1 (stereo partly drawn) | 5.50 |  | 0.25 µg/mL (≈ 0.459 µM) | 4.60 | > 64 µg/mL | > 64 µg/mL
12 | COc1ccc2nccc([C@@H](O)CC[C@@H]3CCN(C4CC(c5ccc(Cl)cc5F)C4)C[C@@H]3C(=O)O)c2c1 (stereo partly drawn) | 5.20 |  | 1 µg/mL (≈ 1.9 µM) | < 4.00 | > 64 µg/mL | > 64 µg/mL
13 | COc1ccc2nccc([C@@H](O)CC[C@@H]3CCN(C4CC(c5c(F)cc(F)cc5F)C4)C[C@@H]3C(=O)O)c2c1 (stereo partly drawn) | 5.20 |  | 0.5 µg/mL (≈ 0.946 µM) | 3.92 | > 64 µg/mL | > 64 µg/mL
14 | COc1ccc2nccc([C@@H](O)CC[C@@H]3CCN(C4CC(c5cc(C)ccc5F)C4)C[C@@H]3C(=O)O)c2c1 (stereo partly drawn) | 5.81 |  |  | 4.12 | > 64 µg/mL | > 64 µg/mL
15 | COc1ccc2nccc([C@@H](O)CC[C@@H]3CCN(C4CC(c5cccc(Cl)c5F)C4)C[C@@H]3C(=O)O)c2c1 (stereo partly drawn) | 5.62 |  | ≤ 0.0625 µg/mL | 4.12 | > 64 µg/mL | > 64 µg/mL
16 | COc1ccc2nccc([C@@H](O)CC[C@@H]3CCN(C4CC(c5cc(F)c(F)cc5F)C4)C[C@@H]3C(=O)O)c2c1 (stereo partly drawn) | 5.81 | ≤ 0.0625 µg/mL |  | 4.43 | 32 µg/mL (≈ 60.5 µM) | 64 µg/mL (≈ 121 µM)
17 | COc1ccc2nccc([C@@H](O)CC[C@@H]3CCN(C4CC(c5cccc(C(F)(F)F)c5F)C4)C[C@@H]3C(=O)O)c2c1 (stereo partly drawn) | 5.20 |  | 0.5 µg/mL (≈ 0.892 µM) | 3.70 |  | > 64 µg/mL
18 | COc1ccc2nccc([C@@H](O)CC[C@@H]3CCN(C4CC(c5ccc(C(F)(F)F)cc5F)C4)C[C@@H]3C(=O)O)c2c1 (stereo partly drawn) | 5.20 |  | 4 µg/mL (≈ 7.14 µM) | < 3.70 | > 64 µg/mL | 

Row | SMILES | pIC50 (DNA gyrase) | MIC (Staphylococcus aureus [1]) | MIC (Staphylococcus aureus [2]) | pIC50 [3] | MIC (Staphylococcus aureus [4]) | MIC (Staphylococcus aureus [5])
19 | COc1ccc2nccc([C@@H](O)CC[C@@H]3CCN(C4CC(c5ccc(Br)cc5F)C4)C[C@@H]3C(=O)O)c2c1 (stereo partly drawn) | 5.20 |  | 8 µg/mL (≈ 14 µM) | < 3.70 | > 64 µg/mL | > 64 µg/mL
20 | COc1ccc2nccc([C@@H](O)CC[C@@H]3CCN(C4CC(c5cccc(OC)c5F)C4)C[C@@H]3C(=O)O)c2c1 (stereo partly drawn) | 4.72 |  | 64 µg/mL (≈ 122 µM) | < 3.70 | > 64 µg/mL | 
21 | COc1ccc2nccc([C@@H](O)CC[C@@H]3CCN(C4CC(c5ccc(F)c(C#N)c5)C4)C[C@@H]3C(=O)O)c2c1 (stereo partly drawn) | 5.50 |  | > 64 µg/mL | < 3.70 |  | 
22 | COc1ccc(C2CC(N3CC[C@@H](CC[C@H](O)c4ccnc5ccc(OC)cc45)[C@@H](C(=O)O)C3)C2)c(F)c1 (stereo partly drawn) | 4.30 |  | 64 µg/mL (≈ 122 µM) | < 3.62 | > 64 µg/mL | 
23 | COc1ccc2nccc([C@@H](O)CC[C@@H]3CCN(C4CC(c5cccc(C#N)c5)C4)C[C@@H]3C(=O)O)c2c1 (stereo partly drawn) | 5.03 |  | 16 µg/mL (≈ 32 µM) | < 3.70 |  | 
24 | COc1ccc2nccc([C@@H](O)CC[C@@H]3CCN(C4CC(c5ccc(C#N)cc5)C4)C[C@@H]3C(=O)O)c2c1 (stereo partly drawn) | < 4.30 | > 64 µg/mL | > 64 µg/mL | 3.62 |  | 
25 | COc1ccc2nccc([C@@H](O)CC[C@@H]3CCN(C4CC(c5ccccc5OC)C4)C[C@@H]3C(=O)O)c2c1 (stereo partly drawn) | 5.20 | 0.5 µg/mL (≈ 0.991 µM) | 1 µg/mL (≈ 1.98 µM) | < 3.62 |  | 
26 | COc1ccc2nccc([C@@H](O)CC[C@@H]3CCN(C4CC(c5c(F)cccc5OC)C4)C[C@@H]3C(=O)O)c2c1 (stereo partly drawn) | 4.90 | 0.25 µg/mL (≈ 0.478 µM) | 2 µg/mL (≈ 3.83 µM) | 4.00 |  | 
27 | COc1ccc2nccc([C@@H](O)CC[C@@H]3CCN(C4CC(c5c(F)cccc5C(F)(F)F)C4)C[C@@H]3C(=O)O)c2c1 (stereo partly drawn) | 4.72 | 0.5 µg/mL (≈ 0.892 µM) | 2 µg/mL (≈ 3.57 µM) | < 4.00 |  | 
28 | COc1ccc2nccc([C@@H](O)CC[C@@H]3CCN(C4CC(c5cc(F)ccc5OC)C4)C[C@@H]3C(=O)O)c2c1 (stereo partly drawn) | 4.90 | 0.5 µg/mL (≈ 0.957 µM) | 4 µg/mL (≈ 7.65 µM) | 4.43 |  | 
29 | COc1ccc2nccc([C@@H](O)CC[C@@H]3CCN(C4CC(c5cc(Br)ccc5F)C4)C[C@@H]3C(=O)O)c2c1 (stereo partly drawn) | 5.50 | ≤ 0.0625 µg/mL | 0.25 µg/mL (≈ 0.437 µM) | 4.30 |  | 
30 | COc1ccc2nccc([C@@H](O)CC[C@@H]3CCN(C4CC(c5ccccc5C(F)(F)F)C4)C[C@@H]3C(=O)O)c2c1 (stereo partly drawn) | 5.81 | 0.125 µg/mL (≈ 0.23 µM) | 0.25 µg/mL (≈ 0.461 µM) | 4.22 |  | 
31 | COc1ccc2nccc([C@@H](O)CC[C@@H]3CCN(C4CC(c5cc(F)ccc5C)C4)C[C@@H]3C(=O)O)c2c1 (stereo partly drawn) | 5.64 | 0.125 µg/mL (≈ 0.247 µM) | 0.5 µg/mL (≈ 0.987 µM) | 4.35 |  | 
32 | COc1ccc2nccc([C@@H](O)CC[C@@H]3CCN(C4CC(c5cc(C#N)ccc5F)C4)C[C@@H]3C(=O)O)c2c1 (stereo partly drawn) | 5.03 | 2 µg/mL (≈ 3.86 µM) | 8 µg/mL (≈ 15.5 µM) | 3.92 | 64 µg/mL (≈ 124 µM) | 
33 | COc1ccc2nccc([C@@H](O)CC[C@@H]3CCN(C4CC(c5ccccc5SC)C4)C[C@@H]3C(=O)O)c2c1 (stereo partly drawn) | 5.50 | 0.25 µg/mL (≈ 0.48 µM) | 2 µg/mL (≈ 3.84 µM) | 4.30 | 64 µg/mL (≈ 123 µM) | 
34 | COc1ccc2nccc([C@@H](O)CC[C@@H]3CCN(C4CC(c5cccc(SC)c5)C4)C[C@@H]3C(=O)O)c2c1 (stereo partly drawn) | 5.33 | 2 µg/mL (≈ 3.84 µM) | 8 µg/mL (≈ 15.4 µM) | 3.82 | 64 µg/mL (≈ 123 µM) | 
35 | COc1ccc2nccc([C@@H](O)CC[C@@H]3CCN(C4CC(c5cc(SC)ccc5F)C4)C[C@@H]3C(=O)O)c2c1 (stereo partly drawn) | 5.50 | 0.25 µg/mL (≈ 0.464 µM) | 2 µg/mL (≈ 3.71 µM) | 4.30 | 64 µg/mL (≈ 119 µM) | 
36 | COc1ccc2nccc([C@@H](O)CC[C@@H]3CCN(C4CC(c5ncc(C)o5)C4)C[C@@H]3C(=O)O)c2c1 (stereo partly drawn) | 5.20 | 2 µg/mL (≈ 4.17 µM) | 8 µg/mL (≈ 16.7 µM) | < 4.00 |  | 
